What was measured:
arterial pressure [1] = test: Acute experiments on narcotized cats: reduction of arterial pressure (intravenous); type: in vivo; conditions: for ED30: Felis catus, read-out: ED30 (average dose that reduces the arterial pressure by 30%)
Description: In acute experiments on cats narcotized with glucochloralose and urethane (90 and 200 mg/kg, respectively, administered intraperitoneally), there were recorded arterial pressure from the common carotid artery, respiration and an ECG with standard lead II. The compounds under study were administered intravenously as a dimethylacetamide solution.
(§1) Average doses of the compounds under study that
(§2) reduce the arterial pressure in narcotized animals by 30%

vertebral artery = test: Blood circulation rate in vertebral artery of narcotized dogs; type: in vivo; conditions: intravenous
carotid artery = test: Blood circulation rate in carotid artery of narcotized dogs; type: in vivo; conditions: intravenous
coronary artery = test: Blood circulation rate in coronary artery of narcotized dogs; type: in vivo; conditions: intravenous
femoral artery = test: Blood circulation rate in femoral artery of narcotized dogs; type: in vivo; conditions: intravenous
cerebral vessels = conditions: background art; cited from earlier work
in vivo = conditions: mouse, ip
Description: Acute toxicity of the compounds involved compared
with the known drugs tested on albino mice
(intraperitoneal administration)

[2] = tested on: systolic arterial pressure; test: Hypotensive effect in spontaneously hypertensive rats (SHR), oral; type: in vivo; conditions: for Hypotensive effect compared with Niphedipin / Hypotensive potency: 3 and 10 mg/kg
[3] = background art, occasionally; cited from earlier work
arterial pressure [4] = test: Hypotensive activity in narcotized rats: reduction of arterial pressure; type: in vivo; conditions: Rattus norvegicus; narcotized rats (urethane); read-out: ED30 (average dose that reduces the arterial pressure by 30%)
Text: as §1, §2

[5] = tested on: arteries supplying blood to the heart and brain; test: Systolic arterial pressure and blood circulation in arteries of heart and brain of narcotized dogs; type: in vivo; conditions: intravenous

In the case of `COC(=O)C1=C(C)NC(C)=C(C(=O)OCCN(C)Cc2ccccc2)C1c1cccc([N+](=O)[O-])c1.Cl` (stereo not drawn) [Nicardipin, 2,6-dimethyl-3-methoxy-carbonyl-4-(3-nitrophenyl)-5-[2(N-benzyl-N-methylamino)ethoxycarbonyl]-1,4-dihydropyridine hydrochloride, reference compound], the “Persistence of hypotensive effect” value (arterial pressure [1]) is reported as 8 min, the ED30 (arterial pressure [1]) is reported as 0.025 mg/kg and the “Blood circulation rate in vertebral artery, percentage increase” value (vertebral artery; 0.001 mg/kg) is reported as 14%. The “Blood circulation rate in vertebral artery, persistence” value (vertebral artery; 0.001 mg/kg) was 6 min, the “Blood circulation rate in vertebral artery, percentage increase” value (vertebral artery; 0.002 mg/kg) was 40% and the “Blood circulation rate in vertebral artery, persistence” value (vertebral artery; 0.002 mg/kg) was 20 min. For the same compound, the “Blood circulation rate in carotid artery, percentage increase” value (carotid artery; 0.001 mg/kg) was 14%, the “Blood circulation rate in carotid artery, persistence” value (carotid artery; 0.001 mg/kg) was 6 min and the “Blood circulation rate in carotid artery, percentage increase” value (carotid artery; 0.002 mg/kg) was 60%. The “Blood circulation rate in carotid artery, persistence” value (carotid artery; 0.002 mg/kg) was 12 min, the “Blood circulation rate in coronary artery, percentage increase” value (coronary artery; 0.001 mg/kg) was 12% and the “Blood circulation rate in coronary artery, persistence” value (coronary artery; 0.001 mg/kg) was 5 min. The “Blood circulation rate in coronary artery, percentage increase” value (coronary artery; 0.002 mg/kg) was 30%, the “Blood circulation rate in coronary artery, persistence” value (coronary artery; 0.002 mg/kg) was 12 min and the “Blood circulation rate in femoral artery, percentage increase” value (femoral artery; 0.001 mg/kg) was 10%. For the same compound, the “Blood circulation rate in femoral artery, persistence” value (femoral artery; 0.001 mg/kg) was 5 min, the “Blood circulation rate in femoral artery, percentage increase” value (femoral artery; 0.002 mg/kg) was 26% and the “Blood circulation rate in femoral artery, persistence” value (femoral artery; 0.002 mg/kg) was 10 min. The Activity (cerebral vessels) was “inadequate activity”, the Vasodilation activity (cerebral vessels) was “vasodilation activity preponderantly towards cerebral vessels” and the LD50 (in vivo) was 225 mg/kg.
For `COC(=O)C1=C(C)NC(C)=C(C(=O)OC)C1c1ccccc1[N+](=O)[O-]` [Niphedipin, 2,6-dimethyl-3,5-dimethoxycarbonyl-4-(2-nitrophenyl)-1,4-dihydropyrine, reference compound], the “Persistence of hypotensive effect” value (arterial pressure [1]) was 6 min, the ED30 (arterial pressure [1]) was 0.02 mg/kg and the Tachycardia [2] was “tachycardia”. The Side effects [3] was “dizziness and nausea”.
In the case of `CCOCCOC(=O)C1=C(C)NC(C)=C(C(=O)OCCOCC)C1c1ccccc1OC(F)F` [R = C2 H4 OC2 H5, 2,6-dimethyl-3,5-bis-(2-ethoxyethoxycarbonyl)-4-(2-difluoromethoxyphenyl)-1,4-dihydropyridine], the “Persistence of hypotensive effect” value (arterial pressure [1]) is reported as 6 min, the ED30 (arterial pressure [1]) is reported as 0.01 mg/kg and the ED30 (arterial pressure [4]) is reported as 0.018 mg/kg. For the same compound, the Tachycardia [2] was “not causative of tachycardia”, the “Hypotensive effect compared with Niphedipin” value [2] was “does not differ substantially” and the Hypotensive potency [2] was “most markedly pronounced hypotensive potency”. It also gave an LD50 (in vivo) of 2200 mg/kg.
For `CCCOCCOC(=O)C1=C(C)NC(C)=C(C(=O)OCCOCCC)C1c1ccccc1OC(F)F` [R = C2 H4 OC3 H7, 2,6-dimethyl-3,5-bis-(2-propoxyethoxycarbonyl)-4-(2-difluoromethoxyphenyl)-1,4-dihydropyridine], the “Persistence of hypotensive effect” value (arterial pressure [1]) was 7 min, the ED30 (arterial pressure [1]) was 0.0045 mg/kg and the ED30 (arterial pressure [4]) was 0.008 mg/kg. For the same compound, the “Blood circulation rate in vertebral artery, percentage increase” value (vertebral artery; 0.0005 mg/kg) was 20%, the “Blood circulation rate in vertebral artery, persistence” value (vertebral artery; 0.0005 mg/kg) was 8 min and the “Blood circulation rate in vertebral artery, percentage increase” value (vertebral artery; 0.001 mg/kg) was 90%. For the same compound, the “Blood circulation rate in vertebral artery, persistence” value (vertebral artery; 0.001 mg/kg) was 18 min, the “Blood circulation rate in vertebral artery, percentage increase” value (vertebral artery; 0.002 mg/kg) was 110% and the “Blood circulation rate in vertebral artery, persistence” value (vertebral artery; 0.002 mg/kg) was 20 min. The “Blood circulation rate in carotid artery, percentage increase” value (carotid artery; 0.0005 mg/kg) was 17%, the “Blood circulation rate in carotid artery, persistence” value (carotid artery; 0.0005 mg/kg) was 5 min and the “Blood circulation rate in carotid artery, percentage increase” value (carotid artery; 0.001 mg/kg) was 60%. For the same compound, the “Blood circulation rate in carotid artery, persistence” value (carotid artery; 0.001 mg/kg) was 15 min, the “Blood circulation rate in carotid artery, percentage increase” value (carotid artery; 0.002 mg/kg) was 100% and the “Blood circulation rate in carotid artery, persistence” value (carotid artery; 0.002 mg/kg) was 20 min. The “Blood circulation rate in coronary artery, percentage increase” value (coronary artery; 0.0005 mg/kg) was 10%, the “Blood circulation rate in coronary artery, persistence” value (coronary artery; 0.0005 mg/kg) was 5 min and the “Blood circulation rate in coronary artery, percentage increase” value (coronary artery; 0.001 mg/kg) was 30%. The “Blood circulation rate in coronary artery, persistence” value (coronary artery; 0.001 mg/kg) was 8 min, the “Blood circulation rate in coronary artery, percentage increase” value (coronary artery; 0.002 mg/kg) was 50% and the “Blood circulation rate in coronary artery, persistence” value (coronary artery; 0.002 mg/kg) was 12 min. The “Blood circulation rate in femoral artery, percentage increase” value (femoral artery; 0.0005 mg/kg) was 0%, the “Blood circulation rate in femoral artery, percentage increase” value (femoral artery; 0.001 mg/kg) was 10% and the “Blood circulation rate in femoral artery, persistence” value (femoral artery; 0.001 mg/kg) was 8 min. For the same compound, the “Blood circulation rate in femoral artery, percentage increase” value (femoral artery; 0.002 mg/kg) was 25%, the “Blood circulation rate in femoral artery, persistence” value (femoral artery; 0.002 mg/kg) was 10 min and the “Intensity and duration of effect on blood circulation rate compared with Nicardipin” value [5] was “much more potent”. The “Hypotensive effect compared with Niphedipin” value [2] was “does not differ substantially”, the Hypotensive potency [2] was “most markedly pronounced hypotensive potency” and the LD50 (in vivo) was 450 mg/kg.
In the case of `CC1=C(C(=O)OCCOc2ccccc2)C(c2ccccc2OC(F)F)C(C(=O)OCCOc2ccccc2)=C(C)N1` [R = C2 H4 OC6 H5, 2,6-dimethyl-3,5-bis-(2phenoxyethoxycarbonyl)-4-(2difluoromethoxyphenyl)-1,4-dihydropyridine], the “Persistence of hypotensive effect” value (arterial pressure [1]) is reported as 7 min, the ED30 (arterial pressure [1]) is reported as 0.02 mg/kg and the ED30 (arterial pressure [4]) is reported as 0.03 mg/kg. The “Hypotensive effect compared with Niphedipin” value [2] was “does not differ substantially”, the Hypotensive potency [2] was “most markedly pronounced hypotensive potency” and the LD50 (in vivo) was 790 mg/kg.
With `COCCOC(=O)C1=C(C)NC(C)=C(C(=O)OCCOC)C1c1ccccc1OC(F)F` [R = C2 H4 OCH3, 2,6-dimethyl-3,5-bis-(2-methoxyethoxycarbonyl)-4-(2-difluoromethoxyphenyl)-1,4-dihydropyridine] the “Persistence of hypotensive effect” value (arterial pressure [1]) was 3 min, the ED30 (arterial pressure [1]) was 0.045 mg/kg and the ED30 (arterial pressure [4]) was 0.04 mg/kg. For the same compound, the LD50 (in vivo) was 1130 mg/kg.
With `COCC(C)OC(=O)C1=C(C)NC(C)=C(C(=O)OC(C)COC)C1c1ccccc1OC(F)F` (stereo not drawn) [R = CH(CH3)CH2 OCH3, 2,6-dimethyl-3,5-bis-[(1-methyl-2-methoxy)-ethoxycarbonyl]-4-(2-difluoromethoxyphenyl)-1,4-dihydropyridine] the “Persistence of hypotensive effect” value (arterial pressure [1]) was 10 min, the ED30 (arterial pressure [1]) was 0.038 mg/kg and the LD50 (in vivo) was 2500 mg/kg.

Source: patent US4845109A, “Alkoxy-and phenoxy alkyl esters of 2,6-dimethyl-4-(2-difluoromethoxyphenyl)-1,4-dihydropyridine-3,5-carboxy lic acid” (priority 1988, dated 1989)
